The structures appear in SMILES notation. pIC50: −log10 of the molar value.

One assay deals with PLC-PRF-5 cells. The assay is described as follows: Inhibition of proliferation of PLC-PRF-5 cells (ATPlite). It counts as cell-based. To be noted: Homo sapiens, PLC-PRF-5, PLC-PRF-5 cells; read-out: PLC-PRF-5 cell proliferation IC50. An outline of the steps: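 Antiproliferative IC50 from luminescent ATP detection (ATPlite) after 96 h compound exposure at 37 °C. Cells grown in DMEM plus 10% FBS and allowed 2 h to settle, then dosed with eight 3-fold dilutions topping at 30 μM final, DMSO 0.3%.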
A general note: In ATP-based viability assays light output follows the ATP content of the culture.

In another assay the test system is pERK in MDA-MB-231 cells. Put plainly: Inhibitory activity at pERK (In Cell Western, MDA-MB-231 cells). It counts as cell-based. To be noted: Homo sapiens, MDA-MB-231, MDA-MB-231 cells; read-out: MDA-MB-231 pERK IC50. In outline: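 pERK was measured by in-cell immunofluorescence (PI nuclear counterstain, Acumen read-out) in fixed MDA-MB-231 cells. Compound exposure lasted 2 h in DMEM with 0.1% BSA, using eight 3-fold dilutions starting at 30 μM final and 0.3% DMSO. IC50 values were derived from the resulting curves.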

A further assay concerns the target KDR kinase (790-1356 AA) (Homo sapiens (Human), UniProt P35968). Put plainly: Inhibitory activity at KDR kinase (Lance Ultra Ulight-TK assay). It is filed as biochemical. An outline of the steps:
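Kinase (20 nM final) and compound were premixed 20 min at 30 °C, then phosphorylation ran 2 h at 30 °C with ATP at 90 μM and Ulight-TK substrate at 50 μM, pH 7.5, Mg2+ and Mn2+ present.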

Sequence of KDR kinase (790-1356 AA) (P35968 790-1356): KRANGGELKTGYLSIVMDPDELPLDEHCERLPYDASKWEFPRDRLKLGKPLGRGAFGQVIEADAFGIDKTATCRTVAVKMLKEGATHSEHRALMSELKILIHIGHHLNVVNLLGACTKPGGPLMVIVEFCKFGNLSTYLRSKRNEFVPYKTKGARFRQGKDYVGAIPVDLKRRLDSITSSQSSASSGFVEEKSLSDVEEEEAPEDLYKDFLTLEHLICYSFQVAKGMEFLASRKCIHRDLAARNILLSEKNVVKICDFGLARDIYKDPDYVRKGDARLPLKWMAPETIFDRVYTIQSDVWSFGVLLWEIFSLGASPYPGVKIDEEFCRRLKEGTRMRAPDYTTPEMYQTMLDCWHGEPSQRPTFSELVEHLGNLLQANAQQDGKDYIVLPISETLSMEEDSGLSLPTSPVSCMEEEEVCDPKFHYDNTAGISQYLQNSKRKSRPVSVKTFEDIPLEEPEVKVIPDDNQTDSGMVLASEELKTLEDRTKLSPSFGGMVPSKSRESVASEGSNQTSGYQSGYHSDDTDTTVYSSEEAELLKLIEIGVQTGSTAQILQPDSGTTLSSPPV

For the compound `CC(F)(F)c1cc(NC(=O)Nc2ccc(Oc3ccnc(NC(=O)C4CC4)c3)cc2)ccc1F` [Exe. 150], the figures for the pIC50 in the assay on PLC-PRF-5 cells, in the assay on pERK in MDA-MB-231 cells and against KDR kinase (790-1356 AA) were 6.13, 7.69 and 7.94, respectively.

Regarding `Cc1ccc(NC(=O)Nc2ccc(Oc3ccnc(NC(=O)C4CC4)c3)c(F)c2)cc1C(F)(F)F` [Exe. 154], the pIC50 is 6.89 with PLC-PRF-5 cells, 7.83 in the assay on pERK in MDA-MB-231 cells and 7.95 against KDR kinase (790-1356 AA).

Turning to `O=C(Nc1cc(F)cc(C(F)(F)F)c1)Nc1ccc(Oc2ccnc(NC(=O)C3CC3)c2)c(F)c1` [Exe. 155], the pIC50 in the assay on PLC-PRF-5 cells is 6.24; in the assay on pERK in MDA-MB-231 cells it was 6.71; on KDR kinase (790-1356 AA), 7.92.

For `O=C(Nc1ccnc(C(F)(F)F)c1)Nc1ccc(Oc2ccnc(NC(=O)C3CC3)c2)c(F)c1` [Exe. 158], the pIC50 is 5.98 in the assay on PLC-PRF-5 cells, 7.09 in the assay with pERK in MDA-MB-231 cells and 8.08 against KDR kinase (790-1356 AA).

Regarding `O=C(Nc1ccc(Oc2ccnc(NC(=O)C3CC3)c2)c(F)c1)Nc1ccc(C(F)(F)F)cc1Cl` [Exe. 160], the pIC50 with PLC-PRF-5 cells was 5.39; in the assay with pERK in MDA-MB-231 cells it was 6.73; against KDR kinase (790-1356 AA), 8.11.

In the case of `O=C(Nc1cncc(C(F)(F)F)c1)Nc1ccc(Oc2ccnc(NC(=O)C3CC3)c2)c(F)c1` [Exe. 169], the pIC50 with PLC-PRF-5 cells was 6.47; with pERK in MDA-MB-231 cells it was 7.37; on KDR kinase (790-1356 AA) it was 7.84.

Take `O=C(Nc1cc(N2CCOCC2=O)cc(C(F)(F)F)c1)Nc1ccc(Oc2ccnc(NC(=O)C3CC3)c2)c(F)c1` [Exe. 171]: the results for the pIC50 with PLC-PRF-5 cells, with pERK in MDA-MB-231 cells and at KDR kinase (790-1356 AA) were 5.70, 7.52 and 7.91, respectively.

Take `CN1CCN(c2cc(C(F)(F)F)cc(NC(=O)Nc3ccc(Oc4ccnc(NC(=O)C5CC5)c4)c(F)c3)n2)CC1` [Exe. 172]: the results for the pIC50 in the assay on PLC-PRF-5 cells, in the assay on pERK in MDA-MB-231 cells and at KDR kinase (790-1356 AA) were 6.71, 7.13 and 7.83, respectively.

In the case of `CN1CCC(Nc2cc(C(F)(F)F)cc(NC(=O)Nc3ccc(Oc4ccnc(NC(=O)C5CC5)c4)c(F)c3)n2)CC1` [Exe. 173], the pIC50 is 6.60 with PLC-PRF-5 cells, 7.10 in the assay with pERK in MDA-MB-231 cells and 7.65 on KDR kinase (790-1356 AA).

With `O=C(Nc1ccc(Oc2ccnc(NC(=O)C3CC3)c2)c(F)c1)Nc1cc(C(F)(F)F)cc(N2CCOCC2)n1` [Exe. 174], the pIC50 was 6.62 with PLC-PRF-5 cells, 7.22 in the assay with pERK in MDA-MB-231 cells and 8.27 against KDR kinase (790-1356 AA).

`O=C(Nc1ccc(Oc2ccnc(NC(=O)C3CC3)c2)c(F)c1)Nc1cc(OC(F)(F)F)ccc1F` [Exe. 176]: the pIC50 with PLC-PRF-5 cells was 7.22; in the assay with pERK in MDA-MB-231 cells, 7.40; on KDR kinase (790-1356 AA), 8.24.

On to `O=C(Nc1ccc(Oc2ccnc(NC(=O)C3CC3)c2)c(F)c1)Nc1ccc(F)c(OC(F)(F)F)c1` [Exe. 177], for which the pIC50 was 6.16 with PLC-PRF-5 cells, 7.43 in the assay with pERK in MDA-MB-231 cells and 8.02 against KDR kinase (790-1356 AA).

Regarding `CC(F)(F)c1cc(F)cc(NC(=O)Nc2ccc(Oc3ccnc(NC(=O)C4CC4)c3)c(F)c2)c1` [Exe. 179], the pIC50 with PLC-PRF-5 cells is 6.69; in the assay on pERK in MDA-MB-231 cells it was 7.29; against KDR kinase (790-1356 AA) it was 7.98.

Regarding `CC(F)(F)c1cccc(NC(=O)Nc2ccc(Oc3ccnc(NC(=O)C4CC4)c3)c(F)c2)c1` [Exe. 180], the results for the pIC50 with PLC-PRF-5 cells, in the assay on pERK in MDA-MB-231 cells and on KDR kinase (790-1356 AA) were 6.82, 7.50 and 8.01, respectively.

For the compound `O=C(Nc1ccc(Oc2ccnc(NC(=O)C3CC3)c2)c(F)c1)Nc1ccc(C(F)(F)F)c(Cl)c1` [Exe. 185], the pIC50 with PLC-PRF-5 cells was 5.83; with pERK in MDA-MB-231 cells, 7.33; at KDR kinase (790-1356 AA), 7.91.

For the compound `Cc1cc(Oc2ccnc(NC(=O)C3CC3)c2)ccc1NC(=O)Nc1cc(F)cc(C(F)(F)F)c1` [Exe. 192], the pIC50 in the assay with PLC-PRF-5 cells is 5.54; in the assay with pERK in MDA-MB-231 cells, 7.70; against KDR kinase (790-1356 AA), 7.76.

For `Cc1cc(Oc2ccnc(NC(=O)C3CC3)c2)ccc1NC(=O)Nc1cc(F)cc(C(C)(F)F)c1` [Exe. 197], the pIC50 was 5.48 with PLC-PRF-5 cells, 7.85 in the assay on pERK in MDA-MB-231 cells and 8.24 on KDR kinase (790-1356 AA).

For the compound `Cc1cc(Oc2ccnc(NC(=O)C3CC3)c2)ccc1NC(=O)Nc1cc(C(C)(F)F)ccc1F` [Exe. 198], the pIC50 was 6.13 in the assay on PLC-PRF-5 cells, 8.24 in the assay with pERK in MDA-MB-231 cells and 8.08 at KDR kinase (790-1356 AA).

These data come from patent US9359338B2, “Cyclopropanecarboxamido-substitute aromatic compounds as anti-tumor agents” (Crown Bioscience Inc. (Taiwan), priority 2012, dated 2016).
